In brackets after ≈: the same amount, converted by molar mass. Several values for one entry are separate records, joined by “and”; a condition that tells them apart may be missing. Equal values may be shown once. Read-outs that look alike come from different tables or passages of the source.

Experiment [1] concerns S. pneumoniae. Type of experiment: cell-based.
Another experiment has as its system S. aureus. The format is cell-based.
In the next experiment the test system is N. meningitidis. The experiment in a line: MIC, CLSI broth microdilution, invasive isolates. Type of experiment: cell-based. Conditions: for % Susc. / % Res.: CLSI (M100-S19, 2009) criteria; for MIC / MIC50 / MIC90: Neisseria meningitidis. On the procedure:
Example. […] Colonization of the nasopharynx (NP) by NM can lead to invasive meningococcal disease. Chemoprophylaxis is used to eradicate NP colonization and prevent transmission to nonimmune contacts. […] 62 isolates (91.9% blood culture) of NM were collected from 29 medical centers in North and South America and Europe (1997-2008). […] Serological identification was performed for serogroups (SGs) B, C, Y and W135.

The subject of experiment [2] is S. pneumoniae. The experiment in a line: microbe, parasite or virus in culture. Type of experiment: cell-based.
In a further experiment the test system is M. fermentans. Type of experiment: cell-based. Conditions: M. fermentans (15 isolates); for MIC50 / MIC90: Mycoplasmopsis fermentans.
The subject of another experiment is M. pneumoniae. The experiment in a line: microbe, parasite or virus in culture. Type of experiment: cell-based. The note with it: for MIC50 / MIC90: Mycoplasmoides pneumoniae.
The next experiment concerns U. parvum. As to the kind of experiment: MIC testing in 10B broth (colour change). Type of experiment: cell-based, Ureaplasma parvum. Conditions: U. parvum (10 isolates); for MIC50 / MIC90: Ureaplasma parvum; for MIC50: read-out: MIC50; for MIC90: read-out: MIC90.
Another experiment concerns U. urealyticum. The experiment in a line: MIC testing in 10B broth (colour change). The format is cell-based. The note with it: U. urealyticum (10 isolates); for MIC50 / MIC90: Ureaplasma urealyticum.
A further experiment deals with M. genitalium. The format is cell-based. Conditions: M. genitalium (5 isolates).
The test system of another experiment is M. hominis. Type of experiment: cell-based. Conditions: M. hominis (13 isolates); for MIC50 / MIC90: Metamycoplasma hominis; for MIC50: read-out: MIC50; for MIC90: read-out: MIC90.
For another experiment, the system named is streptococci. The experiment in a line: organism not typed. The format is cell-based.
In the next experiment the test system is pneumococci. As to the kind of experiment: microbe, parasite or virus in culture. Type of experiment: cell-based, S. pneumoniae.
The subject of the next experiment is group A streptococci. The experiment in a line: microbe, parasite or virus in culture. Type of experiment: cell-based, S. pyogenes.
Setting [3] is: Streptococcus pneumoniae, pneumococci, L4 mutations (27).

As to `CC[C@H]1OC(=O)[C@H](C)[C@@H](OC2CC(C)(OC)C(O)C(C)O2)[C@H](C)[C@@H](OC2OC(C)CC(N(C)C)C2O)[C@@](C)(OC)C[C@@H](C)C(=O)[C@H](C)[C@H]2N(CCCCn3cc(-c4cccnc4)nn3)C(=O)O[C@]12C` (some centres unmarked) [Entry 20b], the values for the MIC entry with S. pneumoniae [1] and in the experiment on S. aureus were “≦0.0625 μg/mL” and 8 µg/mL (≈ 8.22 µM), respectively.

Consider `CN(C)c1ccc(O)c2c1C[C@H]1C[C@H]3[C@H](N(C)C)C(O)=C(C(N)=O)C(=O)[C@@]3(O)C(O)=C1C2=O` [Minocycline], for which the “% Susc.” value in the experiment on N. meningitidis is reported as 100.0%. In addition, in the experiment on N. meningitidis (62 N. meningitidis isolates), the MIC is 0.008 to 0.25 µg/mL (≈ 0.0175 to 0.546 µM), the MIC50 worked out at 0.12 µg/mL (≈ 0.262 µM) and the MIC90 came to 0.12 µg/mL (≈ 0.262 µM).

As for `CC[C@H]1OC(=O)[C@H](C)[C@@H](OC2CC(C)(OC)C(O)C(C)O2)[C@H](C)[C@@H](OC2OC(C)CC(N(C)C)C2O)[C@@](C)(OC)C[C@@H](C)C(=O)[C@H](C)[C@H]2N(CCCCn3cc(Cn4nnc5ccccc54)nn3)C(=O)O[C@]12C` (some centres unmarked) [Entry 20e], the MIC entry in the experiment with S. pneumoniae [1] was “≦0.0625 μg/mL”; in the experiment on S. aureus, 8 µg/mL (≈ 7.79 µM).

Take trimethoprim/sulfamethoxazole [TMP/SMX]: the nonsusceptibility in the experiment with S. pneumoniae [2] is recorded as 100.0%. In the experiment on N. meningitidis (62 N. meningitidis isolates), the “MIC 50%” value came to 0.5 µg/mL, the “MIC 90%” value came out at 2 µg/mL and the “MIC Range” value is “≦0.06-4 μg/ml”. Moreover, in the experiment on N. meningitidis, the “% Res.” value amounted to 59.7% and the “% Susc.” value is 37.1%.

In the case of `CC(=O)NC[C@H]1CN(c2ccc(N3CCOCC3)c(F)c2)C(=O)O1` [Linezolid, linezolid], the “MIC Range” value with M. fermentans is 0.5 to 4 µg/mL; in the experiment on M. pneumoniae it was 32 to 128 µg/mL; against M. genitalium, 4 to 128 µg/mL; in the experiment on M. hominis, 1 to 8 µg/mL; with streptococci it was 0.25 to 2 µg/mL and 0.5 to 2 µg/mL. For the same compound, the MIC50 was 1 µg/mL (≈ 2.96 µM) in the experiment with M. fermentans; 64 µg/mL (≈ 190 µM) in the experiment on M. pneumoniae; over 256 µg/mL in the experiment on U. parvum; over 256 µg/mL with U. urealyticum; 2 µg/mL (≈ 5.93 µM) with M. hominis; 1 µg/mL (≈ 2.96 µM) in the experiment on streptococci. In addition, the MIC90 in the experiment with M. fermentans is 4 µg/mL (≈ 11.9 µM); against M. pneumoniae, 128 µg/mL (≈ 379 µM); in the experiment on U. parvum it was over 256 µg/mL; against S. pneumoniae [2] (Streptococcus pneumoniae) it was 2 µg/mL (≈ 5.93 µM); against U. urealyticum, over 256 µg/mL; in the experiment with M. hominis, 4 µg/mL (≈ 11.9 µM). Further, in the experiment with streptococci, the MIC90 turned out to be 2 µg/mL (≈ 5.93 µM). Besides, the “MIC 90%” value in the experiment on streptococci was found to be 1 µg/mL (≈ 2.96 µM).

With amoxicillin/clavulanate, in the experiment with pneumococci, the “MIC Range” value is 0.015 to 16 µg/mL. In addition, in the experiment with pneumococci (pneumococci, L4 mutations (27)), the MIC50 was found to be 4 µg/mL, the MIC90 is 8 µg/mL and the MIC range was in the range of 0.125 to 8 µg/mL. The nonsusceptibility in the experiment with S. pneumoniae [2] was found to be 88.9%. In the experiment on group A streptococci, the MIC50 was 0.03 µg/mL and <0.015 µg/mL and 0.015 µg/mL; the MIC90 is 0.03 µg/mL and 0.06 µg/mL; the “MIC Range” value was 0.015 to 0.03 µg/mL and 0.03 µg/mL.

As to `C[C@H]1COc2c(N3CCN(C)CC3)c(F)cc3c(=O)c(C(=O)O)cn1c23` [Levofloxacin, levofloxacin], the MIC50 was 1 µg/mL (≈ 2.77 µM) in the experiment on pneumococci (setting [3]); 0.031 µg/mL (≈ 0.0858 µM) in the experiment with M. fermentans; 0.5 µg/mL (≈ 1.38 µM) with M. pneumoniae; 0.5 µg/mL (≈ 1.38 µM) in the experiment with U. parvum; 0.5 µg/mL (≈ 1.38 µM) in the experiment on U. urealyticum; 0.25 µg/mL (≈ 0.692 µM) with M. hominis. Moreover, the MIC50 with streptococci is 1 µg/mL (≈ 2.77 µM); against N. meningitidis (62 N. meningitidis isolates) it was at most 0.008 µg/mL; against group A streptococci (Streptococcus pyogenes) it was 0.5 µg/mL (≈ 1.38 µM). In addition, the MIC90 in the experiment on pneumococci (setting [3]) was determined as 2 µg/mL (≈ 5.53 µM); against M. fermentans, 0.125 µg/mL (≈ 0.346 µM); against M. pneumoniae, 0.5 µg/mL (≈ 1.38 µM); in the experiment with U. parvum it was 2 µg/mL (≈ 5.53 µM); in the experiment on U. urealyticum, 1 µg/mL (≈ 2.77 µM); with M. hominis it was 0.5 µg/mL (≈ 1.38 µM). In addition, the MIC90 against streptococci is 1 µg/mL (≈ 2.77 µM); in the experiment on N. meningitidis (62 N. meningitidis isolates) it was at most 0.008 µg/mL; in the experiment with group A streptococci, 0.5 µg/mL (≈ 1.38 µM); with group A streptococci (Streptococcus pyogenes), 1 µg/mL (≈ 2.77 µM). Moreover, the MIC in the experiment with pneumococci (Streptococcus pneumoniae, read-out: MIC range, pneumococci, L4 mutations (27)) lay within 0.5 to 16 µg/mL (≈ 1.38 to 44.3 µM); with N. meningitidis (62 N. meningitidis isolates), 0.008 to 0.015 µg/mL (≈ 0.0221 to 0.0415 µM); in the experiment on group A streptococci (Streptococcus pyogenes, read-out: MIC Range) it was 0.5 to 2 µg/mL (≈ 1.38 to 5.53 µM). Also, the “MIC Range” value is “≦0.008-0.25 μg/mL” in the experiment with M. fermentans; 0.125 to 1 µg/mL against M. pneumoniae; 0.125 to 2 µg/mL with U. parvum; 0.5 to 2 µg/mL against U. urealyticum; 0.125 to 1 µg/mL with M. genitalium; 0.125 to 0.5 µg/mL in the experiment on M. hominis. Also, in the experiment with group A streptococci, the “MIC Range” value is 0.5 to 1 µg/mL and 0.5 µg/mL. Besides, the “MIC 90%” value with streptococci was 2 µg/mL (≈ 5.53 µM). Also, in the experiment on N. meningitidis, the “% Res.” value is listed as 0.0%. Besides, in the experiment on N. meningitidis, the “% Susc.” value is given as 100.0%.

For the compound `CC[C@H]1OC(=O)[C@@](C)(F)C(=O)[C@H](C)[C@@H](OC2OC(C)CC(N(C)C)C2O)[C@@](C)(OC)C[C@@H](C)C(=O)[C@H](C)[C@H]2N(CCCCn3cc(-c4ccccn4)nn3)C(=O)O[C@]12C` (some centres unmarked) [Entry 23a], the MIC result with S. pneumoniae [1] is recorded as “≦0.125 μg/mL”.

Values taken from patent US9901592B2 (priority 2008, dated 2018).
